Type in all cases: functional
The test system of test [1] is Pneumocystis carinii. The test is described as follows: Efficacy of compound was evaluated in rat infected with Pneumocystis carinii at a dose of 2 mg/Kg administered subcutaneously.
Test [2] concerns Pneumocystis carinii. In words: Efficacy of compound was evaluated in rat infected with Pneumocystis carinii at a dose of 2 mg/Kg administered intraperitoneally.
The test system of test [3] is Pneumocystis carinii. The test is described as follows: Efficacy of compound was evaluated in rat infected with Pneumocystis carinii at a dose of 2 mg/Kg administered orally.

Take `COc1cc(NC(C)CCCN)c2ncccc2c1` (stereo unspecified) [PRIMAQUINE]: the Infection score in the test with Pneumocystis carinii [1] is 4.3.

`CCOc1ccc(Oc2c(OC)cc(NC(C)CCCN)c3nccc(C)c23)cc1` (stereo unspecified) had an Infection score with Pneumocystis carinii [2] of 0.

In turn, `COc1cc(Cc2cnc(N)nc2N)cc(OC)c1OC.Cc1cc(NS(=O)(=O)c2ccc(N)cc2)no1` [CO-TRIMOXAZOLE] showed an Infection score in the test on Pneumocystis carinii [2] of 1.31.

As to `CCCCCCCOc1ccc(Oc2c(OC)cc(NC(C)CCCN)c3nccc(C)c23)cc1` (stereo unspecified), the Infection score in the test with Pneumocystis carinii [3] turned out to be 1.25; in the test with Pneumocystis carinii [2] it was 0.71.

In the test with Pneumocystis carinii [2], `CCCCCCCCCCCCCCCCOc1ccc(Oc2c(OC)cc(NC(C)CCCN)c3nccc(C)c23)cc1` (stereo unspecified) displayed an Infection score of 4.5.
